Like-named read-outs stand apart in the source and are kept apart here.
Columns and labels:
PRC2/EZH2+/+ [1] = biological target: T1, PRC2/EZH2+/+ (Homo sapiens, UniProt Q15910); assay: Kinetic probe competition assay (kPCA), TR-FRET; format: binding
T1 construct: purchased Active Motif
Protocol: Biotinylated PRC2 complexes and the fluorescent probe used in TR-FRET assays were generated as described in the supplementary methods section.
For measurements at 25, 30 and 37 °C, the temperature control functionality of the instrument was used.
TR-FRET kPCA traces were exported via Microsoft Excel to GraphPad Prism, where non-specific signals were subtracted and kinetic association competition traces were fitted to the Motulsky–Mahan model “kinetics of competitive binding” to obtain kon (k3), koff (k4) and KD parameters.

EZH2 = tested on: EZH2; design: method as in Konze et al. [41]; conditions: 40-fold higher enzyme concentration; ref Konze et al. [41]; cited from earlier work
PRC2/EZH2+/+ [2] = biological target: T1, PRC2/EZH2+/+; assay: Equilibrium binding thermodynamics (van't Hoff analysis of ePCA/kPCA at 5-37 °C); conditions: ePCA at 5-37 °C, wild type EZH2
Protocol: (§1) For thermodynamic analysis of the binding to EZH2+/+ the probe characterization, equilibrium and kinetic probe competition assays described above (previously conducted at 25 °C) were performed at 5, 15, 30 and 37 °C. […] For measurements at 25, 30 and 37 °C, the temperature control functionality of the instrument was used.
Equilibrium and kinetic binding constants obtained at various temperatures were used to determine the thermodynamic parameters by van’t Hoff and Eyring analysis, as described elsewhere for SPR and radioligand binding experiments[46],[69]. For the van’t Hoff thermodynamic analysis, changes in entropy ΔS° and enthalpy ΔH° were estimated by linear regression using the van’t Hoff equation. lnKA=ΔS^∘/R-ΔH^∘/RT,
Changes in Gibb’s free energy ΔG° were calculated according to. ΔG^∘T=ΔH^∘-T×ΔS^∘
Additionally, the possible temperature dependence of the thermodynamic parameters was considered using the integrated form of the van’t Hoff equation[47] for nonlinear regression to yield the changes in entropy, enthalpy, and heat capacity ΔCp: ln KA=-ΔH^∘T^∘/RT+ΔS^∘T^∘/R+ΔCp/R[T-T^∘/T-lnT/T^∘],

PRC2/EZH2+/+ [3] = biological target: T1, PRC2/EZH2+/+; assay: Transition state thermodynamics (Eyring analysis of kPCA at 5-37 °C); format: binding; conditions: Kinetic (Eyre); for Enthalpic Efficiency (kon): association; for Enthalpic Efficiency (koff): dissociation
Protocol: as §1
For Eyring transition state analysis, changes in the activation entropy ΔS^# and enthalpy ΔH^# were estimated by Eyring analysis using linear regression of. lnkh/kBT=ΔS^#/R-ΔH^#/(RT).
To consider the possible temperature dependence, the activation entropy and enthalpy were obtained along with the activation heat capacity ΔC^#p by nonlinear regression using. lnkh/kBT=-ΔH^#T^∘/RT+ΔS^#T^∘/R+ΔCp#/R[T-T^∘/T-lnT/T^∘],

[4] = tested on: H3K27me3 mark in MDA-MB-231 cells; assay: High content analysis (HCA) of cellular H3K27me3 mark, washout format; format: cell-based; conditions: for IC50: Homo sapiens, MDA-MB-231, read-out: Mean IC50 (M), H3K27 methylation HCA
Protocol: In the low- and high-signal control wells, test compounds were replaced by 10 µM of EZH2 inhibitor (equal to unlabeled probe from ePCA and kPCA) or DMSO, respectively. […] After fixation, the cells were washed with PBS and incubated with 1% BSA blocking solution at RT for 1 h. Blocking solution was discarded, primary monoclonal antibody rabbit Tri-methyl-histone H3K27 (C36B11, Cell signaling) diluted 1:200 in blocking solution was added and incubated overnight at 4 °C. […] Afterwards, cells were washed three times with PBS and incubated at 4 °C until measuring. Fluorescence signals were captured by an Opera Phenix™ High Content Screening (HCA) system (Perkin Elmer) by 10× magnification. […] Microscopy images were initially visualized and preprocessed with MetaXpress High Content Image Acquisition & Analysis Software (Molecular Devices) as previously described. Raw data import, normalization, quality control and fitting curves for IC50 determination of tested compounds were done with Genedata Screener® for high-content screening. Wells with no recognizable signals were masked and the average intensity of the trimethylation signal was normalized to the DMSO control (0%).

PRC2/EZH1 = biological target: T2, PRC2/EZH1 (Homo sapiens, UniProt Q92800); assay: Scintillation proximity assay (SPA) of H3K27 methylation; format: biochemical
T2 construct: N-terminal 6His-tagged full length EZH2^Y641N, EZH2^Y111L, EZH2^Y111D, EZH2^Y641N, Y661DEZH2, EZH1; 6His (N); made in house; host or cells: Sf9 insect cells (baculovirus co-infection)
Protocol: Assay-ready plates containing 50 nl of compound dilutions and DMSO controls were filled with 2.5 µL enzyme solution and pre-incubated for 15 min. […] Experiments were also performed without pre-incubation of enzyme and compounds. In this case, the substrate solution was added before enzyme. The reaction was stopped using 1.6 µg/µl streptavidin beads (Perkin Elmer) and 700 µM of SAM (Perkin Elmer). The plates were sealed with transparent foil.
For equilibrium binding competition (ePCA) and SPA enzyme inhibition assays, raw data import, quality control, normalization, and curve fitting to a 4-parameter logistic equation for IC50 determination were performed using the Genedata Screener® software (Genedata AG). ePCA Ki values were either calculated using the Cheng-Prussof equation[68] or with the GraphPad Prism model “One-site—Fit Ki”.

[5] = EZH2+/+ (+ H3K27me3), sheet ePCA&kPCA RT, read-out: Kinetic Kd
[6] = EZH2+/+ (- H3K27me3), sheet ePCA&kPCA RT, read-out: Kinetic Kd

Structure (SMILES): CCCc1cc(C)[nH]c(=O)c1CNC(=O)c1cc(-c2ccc(N3CCN(C(C)C)CC3)nc2)cc2c1cnn2C(C)C [Compound 9, UNC1999]
- Calculated RT (PRC2/EZH2+/+ [1]; EZH2+/+ (+ H3K27me3)): 0.20 h
- Kd (PRC2/EZH2+/+ [1]; [5]): 0.54 nM
- RT (Calculated) (PRC2/EZH2+/+ [1]; EZH2+/+ (- H3K27me3), 5 °C): 0.341 h
- RT (Calculated) (PRC2/EZH2+/+ [1]; EZH2+/+ (- H3K27me3), 15 °C): 0.0983 h
- RT (Calculated) (PRC2/EZH2+/+ [1]; EZH2+/+ (- H3K27me3), 30 °C): 0.0171 h
- RT (Calculated) (PRC2/EZH2+/+ [1]; EZH2+/+ (- H3K27me3), 37 °C): 0.0129 h
- Calculated RT (PRC2/EZH2+/+ [1]; EZH2+/+ (- H3K27me3)): 0.0369 h
- Kd (PRC2/EZH2+/+ [1]; [6]): 2.39 nM
- IC50 (EZH2): 10 nM

Structure (SMILES): Cc1cc(C)c(CN2CCc3c(Cl)cc(-c4c(C)noc4C)c(Cl)c3C2=O)c(=O)[nH]1 [Compound 14]
- Kinetic Efficiency (PRC2/EZH2+/+ [1]; EZH2+/+ (+ H3K27me3)): 3.61E-02
- Calculated RT (PRC2/EZH2+/+ [1]; EZH2+/+ (+ H3K27me3)): 0.29 h
- Kd (PRC2/EZH2+/+ [1]; [5]): 0.303 nM
- koff (PRC2/EZH2+/+ [1]; EZH2+/+ (+ H3K27me3), sheet ePCA&kPCA RT, read-out: Kinetic koff): 0.000323 s⁻¹
- kon (PRC2/EZH2+/+ [1]; EZH2+/+ (+ H3K27me3), sheet ePCA&kPCA RT, read-out: Kinetic kon): 1.06e+06 M⁻¹ s⁻¹
- Kinetic Efficiency (PRC2/EZH2+/+ [1]; EZH2+/+ (- H3K27me3)): 2.67E-02
- RT (Calculated) (PRC2/EZH2+/+ [1]; EZH2+/+ (- H3K27me3), 5 °C): 2.28 h
- koff (PRC2/EZH2+/+ [1]; EZH2+/+ (- H3K27me3), 5 °C, read-out: koff (Kinetic)): 0.000251 s⁻¹
- koff (PRC2/EZH2+/+ [1]; EZH2+/+ (- H3K27me3), 5 °C, read-out: koff calc (Calculated)): 0.000122 s⁻¹
- kon (PRC2/EZH2+/+ [1]; EZH2+/+ (- H3K27me3), 5 °C, read-out: kon (Kinetic)): 111000 M⁻¹ s⁻¹
- RT (Calculated) (PRC2/EZH2+/+ [1]; EZH2+/+ (- H3K27me3), 15 °C): 0.613 h
- Kd (PRC2/EZH2+/+ [1]; EZH2+/+ (- H3K27me3), 15 °C, read-out: Kd (Kinetic)): 0.378 nM
- koff (PRC2/EZH2+/+ [1]; EZH2+/+ (- H3K27me3), 15 °C, read-out: koff (Kinetic)): 0.000211 s⁻¹
- kon (PRC2/EZH2+/+ [1]; EZH2+/+ (- H3K27me3), 15 °C, read-out: kon (Kinetic)): 559000 M⁻¹ s⁻¹
- RT (Calculated) (PRC2/EZH2+/+ [1]; EZH2+/+ (- H3K27me3), 30 °C): 0.244 h
- Kd (PRC2/EZH2+/+ [1]; EZH2+/+ (- H3K27me3), 30 °C, read-out: Kd (Kinetic)): 5.24 nM
- koff (PRC2/EZH2+/+ [1]; EZH2+/+ (- H3K27me3), 30 °C, read-out: koff (Kinetic)): 0.00307 s⁻¹
- koff (PRC2/EZH2+/+ [1]; EZH2+/+ (- H3K27me3), 30 °C, read-out: koff calc (Calculated)): 0.00114 s⁻¹
- kon (PRC2/EZH2+/+ [1]; EZH2+/+ (- H3K27me3), 30 °C, read-out: kon (Kinetic)): 582000 M⁻¹ s⁻¹
- RT (Calculated) (PRC2/EZH2+/+ [1]; EZH2+/+ (- H3K27me3), 37 °C): 0.14 h
- Kd (PRC2/EZH2+/+ [1]; EZH2+/+ (- H3K27me3), 37 °C, read-out: Kd (Kinetic)): 2.4 nM
- koff (PRC2/EZH2+/+ [1]; EZH2+/+ (- H3K27me3), 37 °C, read-out: koff (Kinetic)): 0.00199 s⁻¹
- koff (PRC2/EZH2+/+ [1]; EZH2+/+ (- H3K27me3), 37 °C, read-out: koff calc (Calculated)): 0.00194 s⁻¹
- kon (PRC2/EZH2+/+ [1]; EZH2+/+ (- H3K27me3), 37 °C, read-out: kon (Kinetic)): 845000 M⁻¹ s⁻¹
- Calculated RT (PRC2/EZH2+/+ [1]; EZH2+/+ (- H3K27me3)): 0.21 h
- Kd (PRC2/EZH2+/+ [1]; [6]): 2.27 nM
- koff (PRC2/EZH2+/+ [1]; EZH2+/+ (- H3K27me3), sheet ePCA&kPCA RT, read-out: Kinetic koff): 0.00201 s⁻¹
- kon (PRC2/EZH2+/+ [1]; EZH2+/+ (- H3K27me3), sheet ePCA&kPCA RT, read-out: Kinetic kon): 883000 M⁻¹ s⁻¹
- binding driving force, polynomial van't Hoff analysis (PRC2/EZH2+/+ [2]): entropy-driven
- Enthalpic Efficiency (kon) (PRC2/EZH2+/+ [3]; EZH2+/+ (Linear Fit)): 1.3 kcal/mol
- Enthalpic Efficiency (koff) (PRC2/EZH2+/+ [3]; EZH2+/+ (Linear Fit)): 1.9 kcal/mol
- -T * ΔS°kon-koff (PRC2/EZH2+/+ [3]; EZH2+/+ (Linear Fit)): -7.51 kcal/mol
- ΔG°kon-koff (PRC2/EZH2+/+ [3]; EZH2+/+ (Linear Fit)): -12 kcal/mol
- ΔH°kon-koff (PRC2/EZH2+/+ [3]; EZH2+/+ (Linear Fit)): -4.49 kcal/mol
- Enthalpic Efficiency (kon) (PRC2/EZH2+/+ [3]; EZH2+/+ (Non-linear Fit)): 0.47 kcal/mol
- Enthalpic Efficiency (koff) (PRC2/EZH2+/+ [3]; EZH2+/+ (Non-linear Fit)): 1.3 kcal/mol
- -T * ΔS°kon-koff (PRC2/EZH2+/+ [3]; EZH2+/+ (Non-linear Fit)): -5.28 kcal/mol
- ΔG°kon-koff (PRC2/EZH2+/+ [3]; EZH2+/+ (Non-linear Fit)): -12.1 kcal/mol
- ΔH°kon-koff (PRC2/EZH2+/+ [3]; EZH2+/+ (Non-linear Fit)): -6.79 kcal/mol
- AUC (a.u.) ([4]; HCA H3K27 methylation washout pIC50 AUC over all incubation/washout times): 92.2 a.u.
- IC50 ([4]; incubation time 0.5 h, washout time 71.5 h): 7e-06 M
- IC50 ([4]; incubation time 1 h, washout time 71 h): 4.1e-06 M
- IC50 ([4]; incubation time 2 h, washout time 70 h): 2.9e-06 M
- IC50 ([4]; incubation time 4 h, washout time 68 h): 1.8e-06 M
- IC50 ([4]; incubation time 24 h, washout time 48 h): 1.6e-06 M
- IC50 ([4]; incubation time 48 h, washout time 24 h): 5.5e-07 M
- IC50 ([4]; incubation time 72 h, washout time 0 h): 4.6e-08 M
- Ligand Efficiency - 0' enzyme:inhibitor pre-incubation EZH1 (PRC2/EZH1): 1.1
- Ligand Efficiency - 15' enzyme:inhibitor pre-incubation EZH1 (PRC2/EZH1): 1.1
- Ligand Efficiency - 60' enzyme:inhibitor pre-incubation EZH1 (PRC2/EZH1): 1.1
- IC50 (PRC2/EZH1; 0' enzyme:inhibitor pre-incubation, read-out: SPA Mean IC50 (M) - 0' enzyme:inhibitor pre-incubation EZH1): 3.1e-07 M
- IC50 (PRC2/EZH1; 15' enzyme:inhibitor pre-incubation, read-out: SPA Mean IC50 (M) - 15' enzyme:inhibitor pre-incubation EZH1): 2.9e-07 M
- IC50 (PRC2/EZH1; 60' enzyme:inhibitor pre-incubation, read-out: SPA Mean IC50 (M) - 60' enzyme:inhibitor pre-incubation EZH1): 2.9e-07 M

Reference: article PMC10799085, “A miniaturized mode-of-action profiling platform enables high throughput characterization of the molecular and cellular dynamics of EZH2 inhibition” (Scientific Reports, 2024)
